Assay: Half life (T 1/2) estimated in the absence of light, in 50 mM Tris-HCl 1 mM EDTA (pH 7.4) buffer.
Type: ADME
Details: 50 mM Tris-HCl 1 mM EDTA buffer

| SMILES | half-life [h] |
| --- | --- |
| CC(c1ccc(Cl)cc1)N1CCC2(CC1)C(=O)NCN2c1ccc([N+]#N)cc1 (centres undefined) | 5 |
| CN(c1ccc([N+]#N)cc1)C1CCC2(O)C3Cc4ccc(O)c5c4C2(CCN3CC2CC2)C1O5 (centres undefined) [NALTREXONEDIAZONIUM] | 5 |
| CN(c1ccc(N=[N+]=[N-])cc1)C1CCC2(O)C3Cc4ccc(O)c5c4C2(CCN3CC2CC2)C1O5 (centres undefined) | > 24 |
| CC(c1ccc(Cl)cc1)N1CCC2(CC1)C(=O)NCN2c1ccc(N=[N+]=[N-])cc1 (centres undefined) | > 24 |

Reference: ChEMBL document CHEMBL1124903 (J Med Chem, 1990)
